Here are results for 7 compounds from ChEMBL document CHEMBL1127923, “Design and synthesis of squalene synthase inhibitors - acylic mimics of the zaragazic acids” (Bioorg Med Chem Lett, 1994).

This test deals with T1, Squalene synthase (Rattus norvegicus) (UniProt Q02769).
T1 sequence (whole entry): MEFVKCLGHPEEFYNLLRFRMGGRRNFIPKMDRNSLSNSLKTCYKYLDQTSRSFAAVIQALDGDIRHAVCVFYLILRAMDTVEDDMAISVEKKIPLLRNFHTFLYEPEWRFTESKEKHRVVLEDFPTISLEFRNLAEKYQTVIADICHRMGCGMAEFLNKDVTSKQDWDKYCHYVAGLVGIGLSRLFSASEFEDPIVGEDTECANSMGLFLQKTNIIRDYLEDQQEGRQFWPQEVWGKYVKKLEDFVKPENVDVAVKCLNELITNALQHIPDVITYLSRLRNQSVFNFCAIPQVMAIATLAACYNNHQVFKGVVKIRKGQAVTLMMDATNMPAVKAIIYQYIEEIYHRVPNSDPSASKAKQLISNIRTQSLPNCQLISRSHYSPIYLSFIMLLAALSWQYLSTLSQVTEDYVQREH
Nature of the test: Inhibitory activity against squalene synthase in rat liver squalene synthase (RLSS) enzyme assay.
`CC(=O)O[C@H](CCOC(=O)C[C@@H](OC(=O)CCCCCCCCCCOc1ccccc1)C(=O)O[C@H](CC(=O)O)C(=O)O)[C@H](C)Cc1ccccc1` came in with an Activity of 200 nM. With `C=C(CCC12OC(C(=O)O)C(O)(C(=O)O)C(C(=O)O)(O1)[C@H](OC(=O)/C=C/[C@@H](C)C[C@@H](C)CC)[C@H]2O)[C@@H](OC(C)=O)[C@H](C)Cc1ccccc1` (some centres not stated) the figure was 0.35 nM; with `CC[C@H](C)C[C@H](C)/C=C/C(=O)O[C@H](CC(=O)OCCC[C@@H](OC(C)=O)[C@H](C)Cc1ccccc1)C(=O)O[C@H](CC(=O)O)C(=O)O`, 470 nM.

On to `CC(=O)O[C@H](CCCOC(=O)C[C@@H](OC(=O)CCCCCCCCCCOc1ccccc1)C(=O)OC(C(=O)O)C(=O)O)[C@H](C)Cc1ccccc1`, for which the Activity is 200 nM. With `CC(=O)O[C@H](CCCOC(=O)C(OC(=O)CCCCCCCCCCOc1ccccc1)C(=O)O[C@H](CC(=O)O)C(=O)O)[C@H](C)Cc1ccccc1` (some centres not stated) the figure was greater than 3000 nM. With `CC[C@H](C)C[C@H](C)/C=C/C(=O)O[C@H](CC(=O)OCCC[C@@H](OC(=O)C(F)(F)F)[C@H](C)Cc1ccccc1)C(=O)O[C@@H](C(=O)O)[C@@H](O)C(=O)O` the figure was 300 nM.

For the compound `CC(=O)O[C@H](CCCOC(=O)C[C@@H](OC(=O)CCCCCCCCCCOc1ccccc1)C(=O)N1CCC[C@H]1C(=O)O)[C@H](C)Cc1ccccc1`, the Activity is greater than 3000 nM.
